In US9771562B2, “Method for culture of human and mouse prostate organoids and uses thereof” (THE TRUSTEES OF COLUMBIA UNIVERSITY IN THE CITY OF NEW YORK, priority 2012, dated 2017):
Values joined by “and” are separate entries in the source; they are usually repeats but may differ in a detail not shown here. Identical values can stand only once. Like-named read-outs stand apart in the source and are kept apart here.

Key:
[1] = tested on: organoids from Nkx3.1^CreERT2/+; Pten^flox/flox; R26R-YFP/+ (NP) mice; assay: Drug treatment of NP tumor organoids: efficiency of organoid formation; format: cell-based, mouse; details: 1 nM MK-8669; for Frequency (efficiency of organoid formation), Average: average of 3 wells; for Frequency (efficiency of organoid formation), Average / Total organoids counted / Frequency (efficiency of organoid formation): 1000 cells/well, 100 nM DHT control, or without DHT: 10 μM enzalutamide; for Total organoids counted / Frequency (efficiency of organoid formation): single wells, counted after 8 days; for Frequency (efficiency of organoid formation): third passage, embedded in Matrigel; for effect on organoid formation: treatment cultures without DHT, 10 μM enzalutamide
Procedure: Next it was determined whether tumor organoids could be utilized to assess drug response, using organoids from Nkx3.1^CreERT2/+; Pten^flox/flox; R26R-YFP/+ (NP) mice, which were previously used to analyze therapeutic response in vivo [48]. […] To assess therapeutic response, YFP-positive prostate cells were isolated from tamoxifen-induced NP mice for organoid culture, and subsequently dissociated organoids at the third passage to single cell suspensions, followed by plating at 1,000 cells/well embedded within Matrigel/culture medium. Control cultures were established in the presence of DHT, while treatment cultures were established without DHT.
For serial passaging experiments, organoids were passaged at a 1:4 dilution every 1-2 weeks with 0.25% trypsin for 5 minutes at 37° C., followed by mechanical dissociation to nearly single-cell suspensions. Organoids were frozen in complete media with 50% FBS and 10% DMSO. The efficiency of organoid formation was calculated by averaging the number of organoids visible in each well after 7 days of growth using a 10× objective. For statistical analyses, efficiency percentages were arcsin converted to perform unpaired two-tailed Student's t-tests.
The embedding method was used to culture organoids for drug treatment experiments. […] 40 μl of the resulting cell suspension containing 500-3,000 dissociated cells were mixed with 60 μl of Matrigel, and the mixture pipetted around the rim of wells in a 24 well plate. The mixture was allowed to solidify for 30 minutes at 37° C., prior to addition of 400 μl organoid culture medium to each well, with or without supplementation with 100 nm DHT in the presence or absence of drugs. The culture medium was changed every other day, and organoids were counted after 8 days. Drugs were dissolved in DMSO to generate a final concentration of 0.1% in all drug-treated groups. Drug concentrations were as follows: 100 nM DHT, no additions, 0.1% DMSO, 10 μM enzalutamide (provided by Charles Sawyers, Memorial Sloan-Kettering Cancer Center), 1 nM MK-8669 (provided by Cory Abate-Shen, Columbia University Medical Center).

AR [2] = tested on: AR
Procedure: (§1) To examine the effects of androgen-deprivation, organoids established from normal prostate epithelium were cultured and passaged in the presence or absence of DHT. […] To assess the molecular response to androgen-deprivation, quantitative RT-PCR (qPCR) analysis of the expression of several known AR-regulated genes was performed at passage 1.

[3] = tested on: organoids established from normal prostate epithelium; details: absence of DHT versus presence of DHT, after passaging
Procedure: as §1

AR-regulated genes = details: after DHT withdrawal, passage 1
Procedure: as §1
For RNA extraction, 4-6 wells of organoids were pooled, pelleted, and dissolved in Trizol reagent prior to processing by the MagMAX 96 Total RNA Isolation Kit (Ambion, Life Technologies). 300-500 ng of RNA was used for cDNA synthesis using the Superscript First Strand Synthesis System (Invitrogen). Quantitative real-time PCR was carried out using SYBR green master mix reagent (QIAGEN) in the Realplex2 instrument (Eppendorf). cDNA samples were diluted 1:5 to 1:10 for all analyses, which were performed in triplicate. Expression values were obtained using the ΔΔCT method and normalized to GAPDH expression; average values are shown as the mean±standard deviation (SD).

AR [4] = details: NPK-CARN organoids
Description: In particular, Nkx3.1^CreERT2/+; Pten^flox/flox; Kras^LSL-G12D/+; R26R-YFP/+ mice (termed NPK) were castrated and induced with tamoxifen, so that combined Pten deletion, Kras^G12D activation, and YFP expression occurred specifically in CARNs (FIG. 33A). Transformed lineage-marked CARNs were isolated by flow cytometry on the basis of their YFP expression, and used for organoid culture.
For immunostaining, sections underwent antigen-retrieval by boiling in citrate acid-based antigen unmasking solution (Vector Labs) for 10 min. Primary antibodies were applied to sections and incubated at 4° C. overnight in a humidified chamber. Alexa Fluors (Life Technologies) were used for secondary antibodies. Tyramide amplification (Life Technologies) or ABC Elite (Vector Labs) kits were used for signal detection.

Row | Structure (SMILES) | Frequency (efficiency of organoid formation), Average [1] | Total organoids counted [1] | Frequency (efficiency of organoid formation) [1] | AR immunostaining (AR [2]; in the absence of DHT) | AR immunostaining (AR [2]; in the presence of DHT) | organoid size [3] | expression of Fkbp5, Mme, and Psca (AR-regulated genes) | expression of Igfbp3 (AR-regulated genes) | AR localisation (AR [4]; in the absence of DHT) | AR localisation (AR [4]; in the presence of DHT) | effect on organoid formation [1]
1 | C[C@]12CCC(=O)C[C@@H]1CC[C@@H]1[C@@H]2CC[C@]2(C)[C@@H](O)CC[C@@H]12 [DHT, dihydrotestosterone] | 17.4% | 166 and 194 and 162 | 16.6% and 19.4% and 16.2% | weaker and mostly cytoplasmic | nuclear | reduced in size | down-regulated | up-regulated | mostly cytoplasmic AR | nuclear AR | –
2 | CNC(=O)c1ccc(N2C(=S)N(c3ccc(C#N)c(C(F)(F)F)c3)C(=O)C2(C)C)cc1F [Enzalutamide, enzalutamide] | 14.9% | 134 and 163 and 150 | 13.4% and 16.3% and 15.0% | – | – | – | – | – | – | – | minimal effects
3 | CO[C@H]1C[C@@H]2CC[C@@H](C)[C@@](O)(O2)C(=O)C(=O)N2CCCC[C@H]2C(=O)O[C@H]([C@H](C)C[C@@H]2CC[C@@H](OP(C)(C)=O)[C@H](OC)C2)CC(=O)[C@H](C)/C=C(\C)[C@@H](O)[C@@H](OC)C(=O)[C@H](C)C[C@H](C)/C=C/C=C/C=C/1C [MK-8669, ridaforolimus] | 15.9% | 179 and 154 and 145 | 17.9% and 15.4% and 14.5% | – | – | – | – | – | – | – | minimal effects
